From US20250034413A1, “METHODS FOR DECELLULARIZING ANIMAL TISSUE AND BIOINKS DERIVED THEREFROM” (VIRGINIA COMMONWEALTH UNIVERSITY, priority 2021, published 2025)
Entries after “also recorded” stand apart in the source; their conditions may differ.

How the values were obtained:
[1] = system: AGEs in human DMM; assay: Reduction of AGEs in human decellularized muscle matrix (DMM) from MTF Biologics; format: biochemical; conditions: older human samples, 10 mM ALT-711, 37° C., 5 days
Description: Exemplary method for reducing AGEs in decellularized muscle xi. 10 mM ALT-711 is added to each well, and then placed in the 37° C. incubator for 5 days.
xii. After 5 days, the samples are washed 3 times with diH20 each, and then the samples are frozen at −80° C.
In addition, human decellularized muscle from MTF Biologics was also tested for feasibility to reduce AGEs in older human samples using the same protocol as described above.

[2] = system: AGEs in decellularized muscle matrix (DMM); assay: Reduction of AGEs in decellularized mouse gastrocnemius muscle matrix (DMM); format: biochemical; conditions: C57BL6 mouse gastrocnemius, 2-month vs 20-month; 10 mM ALT-711, 37° C., 5 days; FIG. 3
Description: • i. Gastrocnemius is thawed in a 37° C. water bath and then butterflied. • ii. The muscles are washed in a T-25 flask (standing vertical) with 20 ml of deionized water per well 3 times for 10 minutes each. • iii. Tissue is then treated with 20 ml of 0.25% Trypsin for 12-16 hours in a T-25 flask (standing vertical) on an orbital shaker plate. Use tape to secure the flask in a vertical position. • iv. Trypsin treatment is followed by 3 20 ml 15 minute deionized water washes per well. • v. Tissue is treated with 20 mL of 0.1% TRITON X-100™ in a T-25 flask for 8 hours at 4° C. The volume is replaced with fresh TRITON X-100™ and the tissue is treated for another 16 hours. Treatment is followed by 3 20 ml 15 minute deionized water washes per well. • vi. Samples are placed in 20 mL of 60 mM sodium deoxycholate with 0.6 mM SB-16 for 8 hours in a T-25 flask at 4° C. The volume is replaced with fresh sodium deoxycholate and SB-16 and the tissue is treated for another 16 hours. • vii. Samples are washed as described in deionized water and placed in 20 mL of 70 mM CHAPS for 8 hours in a T-25 mL flask at 4° C. The volume is replaced with fresh CHAPS and the tissue is treated for another 16 hours. • viii. […]

SMILES: Cc1sc[n+](CC(=O)c2ccccc2)c1C.[Cl-] [ALT-711, alargebrium chloride 711]
- AGEs normalized to protein ([1]; FIG. 4A): reduced AGEs
- AGEs normalized to hydroxyproline ([1]; FIG. 4B): reduced AGEs
- level of AGEs in decellularized muscle matrix (DMM) [2]: reduced levels of AGEs; also recorded: reduces the higher level of AGEs seen in the 20-month decellularized muscle matrix (DMM) to young adult levels
